According to publication PMC6928761, “Trypanocidal Mechanism of Action and in silico Studies of p-Coumaric Acid Derivatives” (International Journal of Molecular Sciences, 2019):
Like-named read-outs stand apart in the source and are kept apart here.

What was measured:
[1] = test system: T. cruzi (strain Y) epimastigotes; assay: Effect on T. cruzi epimastigote forms (24 h, Neubauer chamber count); type: cell-based, Trypanosoma cruzi; conditions: for trypanocidal activity (in words): epimastigote forms
Protocol: (§1) The trypanocidal activity of the p-coumaric derivatives (1–12) were evaluated against epimastigotes and trypomastigote forms of T. cruzi (strain Y) at 24 h of incubation and in host LLC-MK2 cells at 24 h of exposure to different concentrations: 100; 50; 25; 12.5; 6.25; 3.12; and 1.56 μg/mL. In the MTT assay it was possible to calculate the IC50 of the tested substances through cell viability, which was calculated in relation to the negative control, whose absorbance was considered 100%.
Preparation of T. cruzi epimastigote was performed by cultivation in 96-well Y-staining plates at a density of 10^6 cells/mL, and using liver tryptose infusion with 10% fetal bovine serum (SFB) supplementation, and 1% antibiotic. They were then treated with p-coumaric derivatives. The grown parasites presenting inhibition were collected and quantified in a Neubauer chamber after incubation at 28 °C for 24 h. To determine relative viability, parasites treated only with sterile PBS medium were used as negative controls (viability of 100%), and experiments were performed in triplicate.

[2] = test system: T. cruzi (strain Y) trypomastigotes; assay: Effect on T. cruzi trypomastigote forms (24 h); type: cell-based; conditions: Trypanosoma cruzi, read-out: Y strain (Tripomastigotes) IC50
Protocol: as §1
Acquisition of T. cruzi trypomastigotes was by infection of LLCMK2 cells using trypomastigotes in T-25/75cm^2 containers at 37 °C with 5% CO2 atmosphere in DMEM (Vitrocell, São Paulo, Brazil) and supplementation of 1% antibiotics and 2% SFB for 24 h. Then the trypomastigotes were plated and treated with p-coumaric acid derivatives. Cell viability was counted after 24 h of incubation at 37 °C. LC50 was obtained. While relative cell viability was calculated using sterile PBS-treated cells for both negative controls and experiments, all in triplicate.

LLC-MK2 cells = assay: Cytotoxicity evaluation (mammalian cells), MTT assay; type: cell-based; conditions: Macaca mulatta, read-out: LLC-MK2 IC50
Protocol: as §1
For cell viability we used a standard MTT assay. LLC-MK2 cells were inoculated in DMEM medium, treated with different concentrations of p-coumaric derivatives and incubated at 37 °C for 24 h. MTT (Amresco, Solon, Ohio, USA; 5 mg/mL) was inserted and the cells were incubated for 4 h.
In the next procedure, formazan was solubilized in 10% sodium dodecyl sulfate (SDS; Vetec, São Paulo, Brazil). For cell viability analysis, a plate reader (Biochrom® Asys Expert Plus, CAMBRIGE, UK) with a wavelength of 570 nm was used. While in relative cell viability cells were calculated, which were treated with sterile PBS in triplicate for negative controls and experiments.

T. cruzi amastigotes = test system: T. cruzi amastigotes; set-up: method as in Lima et al. (2015) [41]; conditions: ref Lima et al. (2015) [41]; read-out: activity against T. cruzi amastigotes; cited from earlier work
Trypanosoma brucei = test system: Trypanosoma brucei; set-up: method as in Steverding et al. (2016) [47]; conditions: ref Steverding et al. (2016) [47]; cited from earlier work
[3] = test system: T. cruzi epimastigote forms; assay: Cell death profile, 7-AAD / annexin V-PE flow cytometry; type: cell-based, Trypanosoma cruzi; conditions: 5.164 and 10.329 μM, 24 h
Protocol: Epimastigote forms were used to assess the cell death profile using labeling with AxPE and 7-AAD. For data interpretation, the cells were divided into four cell populations: viable cells, with low levels of labeling for both fluorochromes (un-labeled); necrotic cells, labeled only with 7-AAD (7AAD +); apoptotic cells, labeled with annexin V-PE only (/ AxPE +); and doubly labeled late apoptotic cells (7AAD +/AxPE +).
Evaluation of the mechanism by which compound 7 induced cell death was performed using flow cytometry with 7-AAD (7-aminoactinomicyn D) and phycoerythrin-labeled Annexin V (AxPE) as fluorescent markers. 7-AAD is a molecule capable of specifically interleaving into DNA. However, it is not able to penetrate cells with intact membranes. Cells with high 7-AAD labeling are thus considered necrotic due to loss of membrane integrity. Annexin V is a 36 KDa protein that in the presence of calcium ions presents high affinity for phosphatidylserine. Thus, Ax/PE is used to evaluate external phosphatidylserine as a marker of apoptosis.
T. cruzi epimastigote forms were cultured at a density of 10^6 cells/mL in the presence of compound 7 (at concentrations of 5.164 and 10.329 μM) for 24 h in a BOD greenhouse. The cells were then transferred to cytometry tubes, centrifuged at 4000 RPM for 5 min, and washed with PBS once, and then washed twice with binding buffer (pH 7.4; 10 mM HEPES solution; 140 mM NaCl and 2.5 CaCl2 mM). After final centrifugation, the pellet was re-suspended in 100 µl binding buffer, 5 µl 7-AAD (0.5 mg/mL), and 5 µl Ax/PE. […] After 15 min of incubation in the dark, 400 µl of binding buffer was added to each tube and cells were analyzed on FACSCalibur (BD Biosciences, San José, Califórnia, EUA).
For each tube, a minimum of 10^4 cells were analyzed for quantitation of the percentage of unlabeled, and individually or double labeled 7-AAD and Ax/PE cells. […] Ax/PE labeled cells were read by an FL2 detector (563 at 606 nm, yellow fluorescence), while 7-AAD labeled cells were read at 615 to 645 nm wavelength (red fluorescence, FL3 detector).

[4] = test system: T. cruzi epimastigote forms; assay: Cytoplasmic reactive oxygen species, DCFH-DA flow cytometry; type: cell-based, Trypanosoma cruzi; conditions: both treated groups (5.164 and 10.329 μM) vs control, 24 h
Protocol: The increased presence of reactive oxygen species (ROS) in the cytoplasm of compound 7 treated epimastigote cells was analyzed using the 2′,7′-dichlorofluorescein diacetate reagent (DCFH-DA). As a lipophilic molecule, when internalized in cells it is cleaved by cytoplasmic esterase into DCFH (reduced 2′-7′-dichlorofluorescein), and as it is unable to cross membranes DCFH reacts with intra-cytoplasmic ROSs producing DCF (oxidized 2′-7′-dichlorofluorescein). DCF emits green fluorescence, and the fluorescent intensity emitted by the cell is directly proportional to the intra-cytoplasmic ROS concentration.
A concentration of 10^6 epimastigotes/mL were placed in 24-well plates in the presence of BIS (5.164 and 10.329 μM). […] After 24 h of incubation with compound 7, the cells were harvested, centrifuged (2800 RPM for 7 min), washed with PBS twice, and re-suspended in 500 µL PBS. At the end, the cells were analyzed by flow cytometer.
In accordance with Kessler et al. (2013), the level of labeling in each group was assessed by the mean geometric fluorescence intensity. The results obtained were expressed as relative fluorescence intensity using the formula:(1) Relative fluorescence=mTEST/mCONTROL where: • mTEST = geometric mean of the group to be analyzed; • mCONTROL = geometric mean of the control group.

[5] = test system: T. cruzi epimastigote forms; assay: Mitochondrial transmembrane potential, rhodamine 123 flow cytometry; type: cell-based, Trypanosoma cruzi; conditions: 5.164 and 10.329 μM, 24 h
Protocol: Mitochondrial transmembrane potential (ΔΨm) was assessed using rhodamine 123 fluorescent dye (Rho123).
Rhodamine 123 (Rho123) is a lipophilic and cationic dye that under normal conditions accumulates in the mitochondrial inter-membrane space. Presenting affinity with hydrogen ions, there is a reduction in the concentration of H^+ ions in the inter-membrane space, which decreases Rho123 accumulation, as illustrated in Figure 5. Changes in ΔΨm can be measured using Rho123, measuring the decrease in green fluorescence.
The compound 7 (5.164 and 10.329 μM) was added to the epimastigotes (10^6 cells) in 24-well plates. At 24 h of incubation, cells were transferred to tubes, centrifuged and washed with PBS. The cells were then re-suspended in 100 µL PBS, and 5 µL of Rho123 solution (200 µg/mL in absolute ethanol) was added to obtain a final concentration of 10 µg/mL. Samples were incubated in the dark for 30 min, washed twice with PBS, and re-suspended in PBS (500 µL/tube). Finally, the samples were analyzed using flow cytometry. Results were evaluated using relative fluorescent intensity, calculated as described in the previous item.

[6] = Trypanosoma cruzi, 24 h, read-out: Y strain (Epimastigotes) IC50, 24 h incubation

| SMILES | IC50 [1, 6] [µM] | trypanocidal activity (in words) [1] | IC50 (LLC-MK2 cells; LLC-MK2, 24 h) [µM] | further results |
| --- | --- | --- | --- | --- |
| CC(C)CCOC(=O)/C=C/c1ccc(O)cc1 [compound 8, isopentyl p-coumarate] | 13.2 ± 2.56 | good trypanocidal activity | 120 ± 19.2 | IC50 [2]: 111 ± 38.7 µM |
| CCOC(=O)/C=C/c1ccc(O)c(O)c1 [ethyl caffeate] |  |  |  | IC50 (T. cruzi amastigotes): 18.3 µM |
| CC(C)CCOC(=O)/C=C/c1ccc(O)c(O)c1 [isopentyl caffeate] |  |  |  | effect on parasite growth (Trypanosoma brucei): inhibited parasite growth |
| Cc1ccc(COC(=O)/C=C/c2ccc(O)cc2)cc1 [compound 11] | 75.5 ± 13.4 | did not show significant trypanocidal activity | 160 ± 97.6 |  |
| CCCCCCCCCCCCOC(=O)/C=C/c1ccc(O)cc1 [compound 10] | 50.6 ± 18.9 |  | 141 ± 15.2 |  |
| COC(=O)/C=C/c1ccc(O)cc1 [compound 1, (E)-Methyl 3-(4-hydroxyphenyl)acrylate] |  |  |  | IC50 ([1]; Trypanosoma cruzi, 24 h incubation, read-out: Y strain (Epimastigotes) IC50): 601 ± 249 µM; IC50 (LLC-MK2 cells; LLC-MK2, 24 h exposure, MTT): > 561 µM |
| CC(C)c1ccc(COC(=O)/C=C/c2ccc(O)cc2)cc1 [compound 12] | 68.9 ± 18.1 | did not show significant trypanocidal activity | 2.74 | IC50 ([1]; read-out: Y strain (Epimastigotes) IC50, 24 h incubation): 40.1 ± 10.1 µM |
| COCCOC(=O)/C=C/c1ccc(O)cc1 [compound 5, 2-methoxyethyl p-coumarate] | 32 ± 5.39 | good trypanocidal activity | > 450 | IC50 [2]: 360 ± 112 µM |
| CCCCOC(=O)/C=C/c1ccc(O)cc1 [compound 6] | 155 ± 33.1 |  | 274 ± 46.8 |  |
| CCCCCCOC(=O)/C=C/c1ccc(O)cc1 [compound 9] | 68.9 ± 18.1 |  | 131 ± 16.9 |  |
| CCCCCOC(=O)/C=C/c1ccc(O)cc1 [compound 7, pentyl p-coumarate] | 5.16 ± 1.28 | good trypanocidal activity | 123 ± 22.6 | IC50 [2]: 61.6 ± 28.6 µM; cell death profile [3]: cell death by necrosis; percentage of 7-AAD-labeled cells [3]: increase; percentage of viable cells [3]: reduction; relative fluorescence (DCF, reactive oxygen species) [4]: increase; rhodamine 123 accumulation (mitochondrial transmembrane potential) [5]: reduction |
| CC(C)OC(=O)/C=C/c1ccc(O)cc1 [compound 4] | 335 ± 54.3 |  | 290 ± 49 |  |
| CCOC(=O)/C=C/c1ccc(O)cc1 [compound 2] | 216 ± 109 |  | 443 ± 109 |  |
| CCCOC(=O)/C=C/c1ccc(O)cc1 [compound 3, Propyl p-coumarate] | 16.8 ± 1.93 | good trypanocidal activity | 446 ± 187 | IC50 [2]: 117 ± 59.1 µM |
